Measured values reported in PubChem BioAssay AID463206 (Broad Institute, 2010).
The source made the active and inactive calls.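 Rule for the calls: active = caspase luminescence falls with dose and the half-maximal concentration AC50 from the fitted curve is at or below a set limit; inconclusive = flat fit at 30 to 70% signal loss, or invalid fit; inactive = AC50 above the limit, or signal rises instead.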

The compounds below were run on INS-1E cytokine-induced caspase-3/7, Caspase-Glo luminescence, 48 h (assay: suppression of cytokine-driven beta-cell apoptosis – INS-1E rat cells, luminescence, orthogonal assay for beta-cell apoptosis protection project, dose response (AID 463206)).
With Cc1ccc(C(=O)Nc2nc(-c3ccccn3)cs2)cc1S(=O)(=O)N1CCOCC1 the AC50 was > 26 µM (inactive). O=[N+]([O-])c1cccnc1N/N=C/c1ccccc1O was tested, and the AC50 was > 26 µM (inactive). For C=C1C(=O)O[C@H]2C[C@@H](C)[C@@H]3C=CC(=O)[C@@]3(C)C[C@H]12, the AC50 was 2.83 µM. For C/C(=N\NC(=O)c1ccoc1C)c1ccccc1O, the AC50 was > 26 µM (inactive). For Cc1ccc([N+](=O)[O-])cc1N(CC(=O)Nc1ccc(S(=O)(=O)Nc2cccc(C(F)(F)F)c2)cc1)S(C)(=O)=O, the AC50 was > 26 µM (inactive). With O=C(Nc1ccc(Cl)cc1)Nc1nnc(-c2ccncc2)s1 the AC50 was > 26 µM (inactive). In the case of Oc1ccc(-c2n[nH]c(C(F)(F)F)c2-c2ccccc2)c(O)c1, the AC50 is reported as > 26 µM (inactive). In the case of COc1cccc(/C=N/NC(=O)c2[nH]nc3c2CCc2ccccc2-3)c1O, the AC50 is reported as > 26 µM (inactive). For CCC(C)(C)c1ccc(OCCCC[n+]2ccccc2)c(C(C)(C)CC)c1, the AC50 was > 26 µM (inactive). With Cc1ccc(/C=C/C(=O)c2ccc([N+](=O)[O-])o2)cc1 the AC50 was > 26 µM (inactive). For CCOC(=O)c1[nH]cnc1N=Nc1c(O)ccc2ccccc12, the AC50 was > 26 µM (inactive). With COc1cccc(/C=N/NC(=O)c2ccc(-c3ccccc3)cc2)c1O the AC50 was > 26 µM (inactive). CN1/C(=C\C(=S)NC(=O)c2cccc(Br)c2)C(C)(C)c2ccccc21 was tested, and the AC50 was > 26 µM (inactive). For Cc1cc(/C=N/n2cnnc2)c(C)n1-c1ccc(OCc2ccccc2F)cc1, the AC50 was > 26 µM (inactive). In the case of CCOC(=O)/C(=C\c1ccc([N+](=O)[O-])cc1)C(=O)c1cc(C(C)=O)c(Nc2ccccc2)s1, the AC50 is reported as > 26 µM (inactive). In the case of O=c1c2ccccc2nc(N/N=C/c2c(O)ccc3ccccc23)n1O, the AC50 is reported as > 26 µM (inactive). For CCC(=O)NC(c1cccs1)c1ccc2cccnc2c1O (stereo unspecified), the AC50 was > 26 µM (inactive). With CCOc1cc(S(=O)(=O)NCc2ccncc2)ccc1Cl the AC50 was > 26 µM (inactive). c1ccc(-c2nc3nonc3nc2-c2ccccc2)cc1 was tested, and the AC50 was > 26 µM (inactive). For c1ccc(CNc2c3ccccc3nc3ccccc23)cc1, the AC50 was 6.14 µM. With CC1=C(C#N)C(C(F)(F)F)(C(F)(F)F)N=C(c2ccco2)N1 the AC50 was > 26 µM (inactive). With CCCC(=O)NC(c1ccc(OC)cc1)c1ccc2cccnc2c1O (stereo unspecified) the AC50 was > 26 µM (inactive). O=C(N/N=C/c1ccc([N+](=O)[O-])o1)c1ccc(O)cc1 was tested, and the AC50 was > 26 µM (inactive). In the case of O=[N+]([O-])c1ccc(-c2nc(C(Cl)Cl)c3ccccc3n2)cc1, the AC50 is reported as 0.62 µM. CCOC(=O)c1c(C)[nH]c(C(=O)OCC(=O)NC(C)(C)C)c1C was tested, and the AC50 was > 26 µM (inactive). With COCc1ccc(O)c2ncccc12 the AC50 was > 26 µM (inactive). CC(Oc1ccc(Cl)cc1Cl)c1nc(-c2ccc(NC(=O)c3cccnc3)cc2)no1 (stereo unspecified) was tested, and the AC50 was > 26 µM (inactive). In the case of COC(=O)c1cc(=O)n(CCc2ccccc2F)c(=Nc2ccc(F)c(Cl)c2)s1, the AC50 is reported as > 26 µM (inactive). With Cc1c(N/N=C(\C#N)C(=O)c2ccc(Cl)cc2)c(=O)n(-c2ccccc2)n1C the AC50 was > 26 µM (inactive). In the case of COc1cc([N+](=O)[O-])ccc1NC(=O)CC1SC(=Nc2ccc(F)cc2)N(CCC2=CCCCC2)C1=O (stereo unspecified), the AC50 is reported as > 26 µM (inactive). With COc1ccccc1NCC(=O)N/N=C/c1c(O)ccc2ccccc12 the AC50 was > 26 µM (inactive). For Cc1ccc(NC(=O)Cc2nn(C)c(=O)c3ccccc23)cc1F, the AC50 was > 26 µM (inactive). In the case of C=CCn1c(SCC(=O)c2[nH]c(C)c(C(=O)OCC)c2C)nc2scc(-c3ccc(OC)c(OC)c3)c2c1=O, the AC50 is reported as > 12 µM (inactive). In the case of C=CCn1cc(/C=C/c2cc[n+](C)cc2)c2ccccc21, the AC50 is reported as > 26 µM (inactive). O=C(NCc1cccnc1)/C(=C\c1ccc(-c2ccc(Cl)c(Cl)c2)o1)S(=O)(=O)c1ccccc1 was tested, and the AC50 was > 26 µM (inactive). CCOc1cc(N2CCOCC2)c(OCC)cc1NC(=O)COc1cccc2cccnc12 was tested, and the AC50 was > 26 µM (inactive). For Cc1nn(-c2nc3ccccc3[nH]2)c(=O)c2ccccc12, the AC50 was > 26 µM (inactive). CCC(=O)NC(c1ccccc1OC)c1ccc2cccnc2c1O (stereo unspecified) was tested, and the AC50 was > 26 µM (inactive). O=C(Nc1ccc(-c2noc(-c3cccs3)n2)cc1)c1cccnc1 was tested, and the AC50 was > 26 µM (inactive). For CC1=C(C)/C(=N\OS(=O)(=O)c2ccccc2)C=CC1=O, the AC50 was > 26 µM (inactive). With CCN(CC)c1ccc(/C=N/NC(=O)c2cccc(S(=O)(=O)Nc3ccccc3OC)c2)c(O)c1 the AC50 was > 26 µM (inactive). COc1ccccc1NC(=O)c1cc2cc(Br)ccc2cc1O was tested, and the AC50 was > 26 µM (inactive). COc1ccc(N=Nc2ccc(O)c3ncccc23)cc1 was tested, and the AC50 was > 12 µM (inactive). In the case of O=C(Nc1ccc(Cl)cc1)/C(=C/c1cccc(O)c1)c1nc2ccccc2s1, the AC50 is reported as > 26 µM (inactive). For Cc1ccc2nc(N(CCCN(C)C)C(=O)c3ccc(S(=O)(=O)N4CCc5ccccc5C4)cc3)sc2c1, the AC50 was > 26 µM (inactive). In the case of N#CC(c1cccc(Cl)c1)c1ccc2c(C(F)(F)F)cc(C(F)(F)F)nc2n1 (stereo unspecified), the AC50 is reported as > 26 µM (inactive). With Cc1cccc(N2C(=S)N=C(Nc3c(C)cccc3C)C23CCOC(C)(C)C3)c1 (stereo unspecified) the AC50 was > 26 µM (inactive). In the case of O=C(N/N=C/c1sc2ccccc2c1O)c1cccc2ccccc12, the AC50 is reported as > 26 µM (inactive). CCC(CNc1cc(OC)cc2cccnc12)NC1CCCCC1 (stereo unspecified) was tested, and the AC50 was > 26 µM (inactive). For CCc1ccc(S(=O)(=O)/N=C2/C=C(Sc3ncn[nH]3)C(=O)c3ccccc32)cc1, the AC50 was > 26 µM (inactive). In the case of Cc1ccc(S(=O)(=O)Nc2ccc(NC(=O)Nc3cccc(C(F)(F)F)c3)cc2)cc1, the AC50 is reported as > 26 µM (inactive). For N=c1c2c(-c3ccccc3)c(-c3ccccc3)n(Cc3ccco3)c2ncn1Cc1ccccc1, the AC50 was > 26 µM (inactive). In the case of C=CCn1c(C)c(/C=C/c2cc[n+](C)cc2)c2ccccc21, the AC50 is reported as > 26 µM (inactive). In the case of C=CC[n+]1c(-c2ccc(OCC)cc2)csc1NNC(=O)Nc1ccccc1, the AC50 is reported as > 26 µM (inactive). Nc1ccccc1C#CC(=O)c1ccccc1 was tested, and the AC50 was > 26 µM (inactive). In the case of CC[C@@H]1C/C=C\Cc2ccccc2[C@H](C(=O)C[C@@H](O)CC(C)=O)OC1=O, the AC50 is reported as > 26 µM (inactive). In the case of COCCCNC(=S)N/N=C/c1cccc(OC)c1O, the AC50 is reported as > 26 µM (inactive). In the case of c1ccc(C2(Cn3ccc4ccccc43)OCCO2)cc1, the AC50 is reported as > 26 µM (inactive). With CCOC(=O)C1(Cc2cccc(Cl)c2)CCCN(C(=O)c2ccc(COC)s2)C1 (stereo unspecified) the AC50 was > 26 µM (inactive). In the case of O=c1c(Cl)c(Cl)cnn1Cc1ccc(F)cc1, the AC50 is reported as > 26 µM (inactive). O=C(NC1CCCC1)c1cc(COc2ccc3ncccc3c2)on1 was tested, and the AC50 was > 26 µM (inactive). For CCC(O)C1CCN(C(=O)c2cc(COc3ccc4ncccc4c3)on2)CC1 (stereo unspecified), the AC50 was > 26 µM (inactive). With CCCCCc1cc(=O)oc2c(C(CCN3CCCC(C)C3)c3ccc(OC)cc3)c(OC)cc(OC)c12 (stereo unspecified) the AC50 was > 26 µM (inactive). With O=C1CSC(c2ccccc2F)N1 (stereo unspecified) the AC50 was > 26 µM (inactive). With CCCCCCCCCCCCCCCC[n+]1cccc(C(=O)N(CC)CC)c1 the AC50 was > 26 µM (inactive). With CCN1CCN(C2=C(NS(=O)(=O)c3ccccc3)C(=O)c3ccccc3C2=O)CC1 the AC50 was > 26 µM (inactive). For O=c1c2c(nc3c(-c4ccc(Cl)cc4)c[nH]n13)CCCC2, the AC50 was > 26 µM (inactive). In the case of C=C[C@H](CC(C)C)N(Cc1ccccc1)S(=O)(=O)N(Cc1ccccc1)[C@@H](C=C)CC(C)C, the AC50 is reported as > 26 µM (inactive). For CN(C1=C(NC(=O)c2ccc(Cl)cc2)C(=O)c2ccccc2C1=O)c1ccccc1, the AC50 was > 26 µM (inactive). CCCCCCCCCn1c2c(c(=N)c3c1CCC3)CCC2 was tested, and the AC50 was > 12 µM (inactive). For CCCNC1=C(N(C(C)=O)c2cccc(F)c2)C(=O)c2ccccc2C1=O, the AC50 was > 26 µM (inactive). With CC(=O)c1c(C)[nH]c(C(=O)OCc2cccc(Cl)c2)c1C the AC50 was > 12 µM (inactive). For CC1=CC2/C=C(\C)CCC(O)C(O)/C=C/C(=O)C23C(=O)NC(CC(C)C)C3C1C (stereo unspecified), the AC50 was > 26 µM (inactive). With Oc1cccc(/C=N/Nc2ccc(Cl)nn2)c1O the AC50 was > 26 µM (inactive). In the case of COc1cccc(/C=N/NC(=O)c2cc3c(OC)ccc(OC)c3[nH]2)c1O, the AC50 is reported as > 26 µM (inactive). With Clc1ccc2nnnc(-c3ccccc3)c2c1 the AC50 was > 26 µM (inactive). In the case of Cc1ccc(C2=CC(c3ccc(N(C)C)cc3)n3nnnc3N2)cc1 (stereo unspecified), the AC50 is reported as > 26 µM (inactive). For C/C(=N\NC(=O)c1nnn(-c2nonc2N)c1CN1CCc2ccccc21)c1ccccc1O, the AC50 was > 26 µM (inactive). For Nc1nc2ccccc2n1/N=C/c1ccc([N+](=O)[O-])s1, the AC50 was > 26 µM (inactive). For O=C(Nc1cc(-c2ccccc2)nn1C1CCCCC1)c1ccc(Cl)cc1, the AC50 was > 26 µM (inactive). S=C(Nc1ccc(Cl)cc1)Nc1cccc2cnccc12 was tested, and the AC50 was > 26 µM (inactive). For CNc1ccc2oc(C[C@H]3O[C@@]4(CC[C@H]3C)O[C@H]([C@H](C)C(=O)c3ccc[nH]3)[C@H](C)C[C@H]4C)nc2c1C(=O)O, the AC50 was > 26 µM (inactive). CCN1/C(=C/c2cccc[n+]2C)Sc2ccc(OC)cc21 was tested, and the AC50 was > 26 µM (inactive). For Cc1ccc(C(C)C)c(OCC(O)CN2CCc3ccccc3C2)c1 (stereo unspecified), the AC50 was > 12 µM (inactive). In the case of Cc1nnsc1-c1onc(C)c1C(=O)Nc1cc(Cl)cc(Cl)c1, the AC50 is reported as > 26 µM (inactive). For COc1ccc(C(=O)N/N=C/c2ccccc2OC(=O)c2ccccc2)cc1, the AC50 was > 26 µM (inactive). In the case of Cc1sc2ncnc(NCC3COc4ccccc4O3)c2c1C (stereo unspecified), the AC50 is reported as > 26 µM (inactive). C#Cc1ccc([C@@H]2C=C(C(=O)N3CCN(Cc4ccccc4)CC3)O[C@H](OCCCCO)C2)cc1 was tested, and the AC50 was > 26 µM (inactive). Work on OCCCNc1c2ccccc2nc2ccccc12 yielded an AC50 of 7.37 µM. With O=C1C(Nc2ccccc2)=C/C(=N/S(=O)(=O)c2cccs2)c2ccccc21 the AC50 was > 26 µM (inactive). COc1ccc(S(=O)(=O)Nc2ccc3oc(C)c(C(C)=O)c3c2)cc1 showed an AC50 of 22.6 µM. In the case of COc1cccc(CNCCc2c[nH]c3ccccc23)c1OCc1ccccc1F, the AC50 is reported as > 26 µM (inactive). Clc1ccc(SCc2cc(N3CCOCC3)nc(-c3ccccn3)n2)cc1 was tested, and the AC50 was > 26 µM (inactive). COc1ccc([N+](=O)[O-])c(S(=O)(=O)c2ccc(Cl)cc2)n1 was tested, and the AC50 was > 26 µM (inactive). Cc1ccn2c(Nc3ccccc3C)c(-c3ccccn3)nc2c1 was tested, and the AC50 was > 26 µM (inactive). With Cc1nc(C(=O)NNC(=O)c2c(-c3c(Cl)cccc3Cl)noc2C)cs1 the AC50 was > 26 µM (inactive).
